Assay results: patent publication US11759444B2, “Methods for cancer and immunotherapy using prodrugs of glutamine analogs” (The Johns Hopkins University, priority 2015, dated 2023)
“Also recorded” adds a separate entry of the source.

What was measured:
[1] = Chemical stability of DON esters and prodrugs; type: physicochemical
[2] = In vitro plasma stability, human plasma; details: for PLASMA STABILITY Human: Table 2, prodrug 10 μM, 60 min incubation at 37° C., values read as % prodrug remaining
[3] = In vitro plasma stability, monkey plasma; details: for PLASMA STABILITY Monkey: Table 2, prodrug 10 μM, 60 min incubation at 37° C., values read as % prodrug remaining
[4] = In vitro plasma stability, mouse plasma; details: Table 2; prodrug 10 μM, 60 min incubation at 37° C.; values read as % prodrug remaining
[5] = In vitro liver microsomal stability, human
[6] = In vitro liver microsomal stability, pig
[7] = Plasma and CSF pharmacokinetics in swine, i.v. infusion; type: in vivo, Göttingen×Yucutan miniature swine; details: 60 min post-administration
EL4 lymphoma = experiment: EL4 mouse lymphoma model; type: in vivo; details: monotherapy
B16 melanoma = B16 melanoma mouse model; type: in vivo
[8] = cited from earlier work
[9] = Brain and plasma pharmacokinetics in mice, oral; type: in vivo, C57BL/6 mice; details: 0.8 mg/kg DON equivalent
Procedure: All pharmacokinetic studies in mice were conducted according to protocol (#M013M113) approved by the Animal Care and Use Committee at Johns Hopkins University. C57BL/6 mice between 25 and 30 g were obtained from Harlan, and maintained on a 12 hour light-dark cycle with ad libitum access to food and water. To evaluate the brain and plasma pharmacokinetics of DON and its prodrug 5c, 8-12 week old C57BL/6 were administered DON (1; 0.8 mg/kg, p.o. in phosphate-buffered saline) and its prodrug 5c (at 0.8 mg/kg equivalent DON (1), p.o. in phosphate-buffered saline with 5% EtOH and 5% Tween-80). The mice were sacrificed by pentobarbital injection at 10, 30 and 90 minutes post drug administration, and blood was collected via cardiac puncture and placed into iced EDTA coated BD microtainers. […]
We have previously published a highly sensitive method for analysis of DON in biological matrices (Alt, et al., 2015). […] The mean predicted […] for back calculated concentrations of the standards and QC's for all analytes were within the range of 85 to 115%, except for the lowest concentration which was within the range of 80 to 120% with an overall accuracy and precision of 6.7% and 6.6% respectively.
Mean concentration-time data was used for pharmacokinetic analysis. […] Area under the curve (AUC) was calculated by log-linear trapezoidal rule to the end of sample collection (AUClast).

U87 human glioma cells = experiment: U87 flank xenograft mouse model of GBM; type: in vivo; details: 0.8 mg/kg, i.p.; for GBM tumor growth: q.d. days 1-6
Procedure: All mouse efficacy studies were conducted according to protocol #M013M69 approved by the Animal Care and Use Committee at Johns Hopkins University. Female athymic (RH_Foxn1nu mice) mice between 25 and 30 g were obtained (Harlan Sprague Dawley Inc, Indianapolis, Ind.), and maintained on a 12 hour light-dark cycle with ad libitum access to food and water. U87 human glioma cells were injected s.c. (5×10^6 cells in […] of PBS) in four separate locations on the flanks of each mouse. When tumors grew to a mean volume of around 200 mm^3, mice were randomized into either vehicle (HEPES-buffered saline, i.p.) or DON (1; 0.8 mg/kg, i.p.). In one cohort, mice were administered a single dose of the appropriate solution two hours after which glutamine levels were quantified in the tumor as described previously.^49 In brief, tumors were harvested, snap frozen, and homogenized in liquid N2 then subjected to metabolite extraction using methanol and DI water. Quantification was performed using Agilent 6520 Quadrupole-Time-of-Flight (Q-TOF) mass spectrometer with Agilent 1290 HPLC and using Agilent Mass Hunter and Agilent Qualitative and Quantitative Analysis Software packages. Glutamine content was averaged by group for each individual tumor (n=3-4/group), depicted as relative intensity, and analyzed by one-tailed t test. In a second cohort, efficacy experiments were conducted. Mice were injected once daily for six days; tumor volumes were measured using digital calipers and calculated according to the formula: [volume=(largest tumor dimension)×(smallest tumor dimension)×0.52] at 2, 4, and 6 days after the onset of treatment. Each individual tumor (n=8-10/group) was normalized to its pretreatment volume, averaged and analyzed by repeated measures two-way analysis of variance (ANOVA). If significant, a Bonferroni post hoc test was subsequently applied. Significance was defined as p<0.05.

tumor cells = experiment: Oxygen consumption and lactate production of tumor cells; type: cell-based
TILs = experiment: CD8/Treg ratio in the tumor and hypoxia in the TILs; details: in vivo

**Q.** For `CCOC(=O)C(N)CCC(=O)C=[N+]=[N-]` (stereo not drawn) [Compound 2a], which “chemical stability” value [1] is on record?
**A.** unstable

**Q.** Which “chemical stability” value [1] does the source give for `CC(C)OC(=O)C(N)CCC(=O)C=[N+]=[N-]` (stereo not drawn) [Compound 2b] here?
**A.** unstable

**Q.** Which “stability in human plasma” value [2] does the source give for `CCOC(=O)[C@H](CCC(=O)C=[N+]=[N-])NC(=O)OC(C)OC(=O)C(C)(C)C` (stereo partly drawn) [Compound 5b] here?
**A.** stable

**Q.** What about the “stability in monkey plasma” value [3] of the same molecule?
**A.** stable

**Q.** Which PLASMA STABILITY Human [2] does the source give for `CC(C)C[C@H](N)C(=O)N[C@@H](CCC(=O)C=[N+]=[N-])C(=O)OC(C)C` [Compound 9] here?
**A.** 1%

**Q.** And the PLASMA STABILITY Mouse [4]?
**A.** 0%

**Q.** What about the “liver microsomal stability, human” value [5] of the same molecule?
**A.** moderate-high stability

**Q.** What about the PLASMA STABILITY Monkey [3] of the same molecule?
**A.** 1%

**Q.** What about the “liver microsomal stability, pig” value [6] of the same molecule?
**A.** moderate-high stability

**Q.** With `CCOC(=O)[C@@H]1CCC(C=[N+]=[N-])=N1` [Compound 9a] as the molecule, how does the “chemical stability” value [1] read?
**A.** chemically stable even at acidic pH

**Q.** Which “chemical stability” value [1] does the source give for `CC(C)OC(=O)[C@@H]1CCC(C=[N+]=[N-])=N1` [Compound 9b] here?
**A.** chemically stable even at acidic pH

**Q.** Which PLASMA STABILITY Human [2] does the source give for `Cc1oc(=O)oc1COC(=O)N[C@@H](CCC(=O)C=[N+]=[N-])C(=O)OC(C)C` [Compound 13] here?
**A.** 0%

**Q.** What about the PLASMA STABILITY Mouse [4] of the same molecule?
**A.** 0%

**Q.** What about the PLASMA STABILITY Monkey [3] of the same molecule?
**A.** 0%

**Q.** With `CCOC(=O)[C@H](CCC(=O)C=[N+]=[N-])NC(=O)OC(C)OC(=O)C(C)(C)C` (stereo partly drawn) [Compound 32] as the molecule, how does the PLASMA STABILITY Human [2] read?
**A.** 88%

**Q.** What about the PLASMA STABILITY Mouse [4] of the same molecule?
**A.** 0%

**Q.** What about the PLASMA STABILITY Monkey [3] of the same molecule?
**A.** 75%

**Q.** Which PLASMA STABILITY Human [2] does the source give for `CCOC(=O)[C@H](CCC(=O)C=[N+]=[N-])NC(=O)[C@@H](N)Cc1cc2ccccc2[nH]1` [Compound 34] here?
**A.** 12%

**Q.** What about the PLASMA STABILITY Mouse [4] of the same molecule?
**A.** 0%

**Q.** What about the PLASMA STABILITY Monkey [3] of the same molecule?
**A.** 4%

**Q.** Which PLASMA STABILITY Human [2] does the source give for `CCOC(=O)[C@H](CCC(=O)C=[N+]=[N-])NC(=O)OCc1oc(=O)oc1C` [Compound 36] here?
**A.** 0%

**Q.** What about the PLASMA STABILITY Mouse [4] of the same molecule?
**A.** 0%

**Q.** What about the PLASMA STABILITY Monkey [3] of the same molecule?
**A.** 0%

**Q.** Which PLASMA STABILITY Human [2] does the source give for `CC(C)OC(=O)[C@H](CCC(=O)C=[N+]=[N-])NC(=O)[C@@H](N)Cc1cc2ccccc2[nH]1` [Compound 38] here?
**A.** 30%

**Q.** And the PLASMA STABILITY Mouse [4]?
**A.** 0%

**Q.** What about the PLASMA STABILITY Monkey [3] of the same molecule?
**A.** 10%

**Q.** With `CC(C)OC(=O)[C@H](CCC(=O)C=[N+]=[N-])NC(=O)[C@@H](N)Cc1c[nH]c2ccccc12` [Compound 38a] as the molecule, how does the “liver microsomal stability, human” value [5] read?
**A.** moderate-high stability

**Q.** And the “liver microsomal stability, pig” value [6]?
**A.** moderate-high stability

**Q.** With `CC(C)OC(=O)[C@H](CCC(=O)C=[N+]=[N-])NC(=O)OCOC(=O)C(C)(C)C` [Compound 42] as the molecule, how does the PLASMA STABILITY Human [2] read?
**A.** 9%

**Q.** What about the PLASMA STABILITY Mouse [4] of the same molecule?
**A.** 0%

**Q.** And the PLASMA STABILITY Monkey [3]?
**A.** 0%

**Q.** Which “CSF delivery of DON” value [7] does the source give for `CC(C)OC(=O)[C@H](CCC(=O)C=[N+]=[N-])NC(=O)OC(OC(=O)C(C)(C)C)c1ccccc1` (stereo partly drawn) [Compound 47] here?
**A.** substantially higher amounts of DON; also recorded: enhanced CSF delivery of DON

**Q.** And the “CSF-to-plasma ratio of DON” value [7]?
**A.** increased CSF-to-plasma ratios; also recorded: enhanced CSF:plasma ratio of DON

**Q.** Which results are given for `CC(=O)N[C@@H](Cc1c[nH]c2ccccc12)C(=O)N[C@@H](CCC(=O)C=[N+]=[N-])C(=O)OC(C)C` [Compound 60a]?
**A.** liver microsomal stability, human [5]: moderate-high stability; liver microsomal stability, pig [6]: moderate-high stability

**Q.** Which “lymphoma tumor growth” value (EL4 lymphoma) does the source give for `[N-]=[N+]=CC(=O)CC[C@H](N)C(=O)O` [DON, 6-diazo-5-oxo-L-norleucine] here?
**A.** markedly inhibit lymphoma growth

**Q.** What about the “tumor infiltrating regulatory T cells (Foxp3+)” value (B16 melanoma; B16 melanoma) of the same molecule?
**A.** inhibiting tumor infiltrating regulatory T cells

**Q.** What about the “melanoma tumor growth” value (B16 melanoma; monotherapy) of the same molecule?
**A.** modest effect

**Q.** What about the clinical toxicity ([8]; human, in vivo) of the same molecule?
**A.** dose limiting toxicities, many of which were GI-related

**Q.** And the “regression or stable disease in patients” value ([8]; late stage adult patients, children with hematological malignancies or solid tumors)?
**A.** > 50%

**Q.** What about the “AUC0-t of DON in brain” value [9] of the same molecule?
**A.** 0.57 nmol·h/g

**Q.** What about the “glutamine metabolism in flank GBM tumor (endogenous glutamine accumulation)” value (U87 human glioma cells; 2 hours post-administration) of the same molecule?
**A.** inhibited glutamine metabolism

**Q.** And the “reduction in tumor volume” value (U87 human glioma cells; q.d.)?
**A.** > 50%

**Q.** And the weight loss (U87 human glioma cells; q.d.)?
**A.** 12±4.1%

**Q.** And the “GBM tumor growth” value (U87 human glioma cells)?
**A.** halted tumor growth, but also effectively induced tumor regression

**Q.** And the “GBM tumor growth” value (U87 human glioma cells; listed as 1)?
**A.** dramatic reduction in tumor size

**Q.** And the signs of toxicity (U87 human glioma cells; q.d., all mice receiving DON)?
**A.** hunching, ptosis, and lethargy

**Q.** And the “lactate production of tumor cells” value (tumor cells)?
**A.** reduces

**Q.** What about the “oxygen consumption of tumor cells” value (tumor cells) of the same molecule?
**A.** reduces

**Q.** What about the “CD8/Treg ratio in the tumor” value (TILs) of the same molecule?
**A.** improved the CD8/Treg ratio

**Q.** And the “hypoxia in the TILs” value (TILs)?
**A.** reduces hypoxia in the TILs
